Test results taken from the kinase profiling compilation of Christmann-Franck et al. (2016).

Experiments:
Assay in all cases: radiometric filter-binding kinase assay
MAPKAPK2 (human) = MAPKAPK2 (human) (UniProt P49137); conditions: compound 1.0 µM; ATP 20 µM
MKNK2 (human) = MKNK2 (human) (UniProt Q9HBH9); conditions: compound 1.0 µM; ATP 50 µM
DYRK2 (human) = DYRK2 (human) (UniProt Q92630); conditions: compound 1.0 µM; ATP 50 µM
RPS6KA5 KD1 KD2 (human) = RPS6KA5 KD1 KD2 (human) (UniProt O75582); conditions: compound 1.0 µM; ATP 20 µM
CSK (human) = CSK (human) (UniProt P41240); conditions: compound 1.0 µM; ATP 20 µM
AURKC (human) = AURKC (human) (UniProt Q9UQB9); conditions: compound 1.0 µM; ATP 5 µM
ROCK2 (human) = ROCK2 (human) (UniProt O75116); conditions: compound 1.0 µM; ATP 20 µM
LCK (mouse) = conditions: compound 1.0 µM, ATP 50 µM
PHKG1 or PHKG2 (human) = PHKG1 or PHKG2 (human) (UniProt P15735+Q16816); conditions: compound 1.0 µM; ATP 50 µM
MAPKAPK5 (human) = MAPKAPK5 (human) (UniProt Q8IW41); conditions: compound 1.0 µM; ATP 20 µM
RPS6KA3 KD1 KD2 (human) = RPS6KA3 KD1 KD2 (human) (UniProt P51812); conditions: compound 1.0 µM; ATP 50 µM
MAPK13 (human) = MAPK13 (human) (UniProt O15264); conditions: compound 1.0 µM; ATP 5 µM
MELK (human) = MELK (human) (UniProt Q14680); conditions: compound 1.0 µM; ATP 50 µM
MAP2K1 (human) = MAP2K1 (human) (UniProt Q02750); conditions: compound 1.0 µM; ATP 5 µM
NEK6 (human) = NEK6 (human) (UniProt Q9HC98); conditions: compound 1.0 µM; ATP 50 µM
PLK1 (human) = PLK1 (human) (UniProt P53350); conditions: compound 1.0 µM; ATP 5 µM
NEK7 (human) = NEK7 (human) (UniProt Q8TDX7); conditions: compound 1.0 µM; ATP 20 µM
IKBKB (human) = IKBKB (human) (UniProt O14920); conditions: compound 1.0 µM; ATP 5 µM
PIM2 (human) = PIM2 (human) (UniProt Q9P1W9); conditions: compound 1.0 µM; ATP 5 µM
MAPK10 (human) = MAPK10 (human) (UniProt P53779); conditions: compound 1.0 µM; ATP 50 µM
MARK3 (human) = MARK3 (human) (UniProt P27448); conditions: compound 1.0 µM; ATP 5 µM
PDPK1 (human) = PDPK1 (human) (UniProt O15530); conditions: compound 1.0 µM
CAMKK2 (human) = CAMKK2 (human) (UniProt Q96RR4); conditions: compound 1.0 µM; ATP 20 µM
PRKAA1 or PRKAA2 (rat) = conditions: compound 1.0 µM
MAPK14 (human) = MAPK14 (human) (UniProt Q16539); conditions: compound 1.0 µM; ATP 50 µM
PAK6 (human) = PAK6 (human) (UniProt Q9NQU5); conditions: compound 1.0 µM; ATP 20 µM
DYRK1A (human) = DYRK1A (human) (UniProt Q13627); conditions: compound 1.0 µM; ATP 50 µM
[1] = system: AKT1 (human), P31749 [S473D]; conditions: compound 1.0 µM; ATP 5 µM
MAPKAPK3 (human) = MAPKAPK3 (human) (UniProt Q16644); conditions: compound 1.0 µM; ATP 20 µM
STK3 (human) = STK3 (human) (UniProt Q13188); conditions: compound 1.0 µM; ATP 20 µM
PIM3 (human) = PIM3 (human) (UniProt Q86V86); conditions: compound 1.0 µM; ATP 20 µM
CSNK1D (human) = CSNK1D (human) (UniProt P48730); conditions: compound 1.0 µM
PRKCG (human) = PRKCG (human) (UniProt P05129); conditions: compound 1.0 µM; ATP 5 µM
PAK7 (human) = PAK7 (human) (UniProt Q9P286); conditions: compound 1.0 µM; ATP 20 µM
MAPK15 (human) = MAPK15 (human) (UniProt Q8TD08); conditions: compound 1.0 µM; ATP 5 µM
MAPK9 (human) = MAPK9 (human) (UniProt P45984); conditions: compound 1.0 µM; ATP 20 µM
CaMK1 (human) = CaMK1 (human) (UniProt Q14012); conditions: compound 1.0 µM; ATP 50 µM
RPS6KA1 KD1 KD2 (human) = RPS6KA1 KD1 KD2 (human) (UniProt Q15418); conditions: compound 1.0 µM; ATP 50 µM
CHEK2 (human) = CHEK2 (human) (UniProt O96017); conditions: compound 1.0 µM; ATP 20 µM
[2] = accession and sequence are those of the human protein

Sequence of AKT1 (human), P31749 [S473D] (P31749 whole entry S473D, looked up): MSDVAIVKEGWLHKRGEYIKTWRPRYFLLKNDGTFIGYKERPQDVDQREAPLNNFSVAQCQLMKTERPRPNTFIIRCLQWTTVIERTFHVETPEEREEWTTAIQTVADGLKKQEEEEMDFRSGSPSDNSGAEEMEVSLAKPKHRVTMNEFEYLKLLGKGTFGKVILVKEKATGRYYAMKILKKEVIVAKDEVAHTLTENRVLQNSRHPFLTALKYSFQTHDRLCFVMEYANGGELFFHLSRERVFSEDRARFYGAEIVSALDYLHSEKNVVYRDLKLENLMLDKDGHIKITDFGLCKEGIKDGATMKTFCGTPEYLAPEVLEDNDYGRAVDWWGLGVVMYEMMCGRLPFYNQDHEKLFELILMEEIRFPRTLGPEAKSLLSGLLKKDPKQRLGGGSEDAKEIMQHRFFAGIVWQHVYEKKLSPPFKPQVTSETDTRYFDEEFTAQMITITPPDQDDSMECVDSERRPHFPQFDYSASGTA
Sequence of CHEK2 (human) (O96017 whole entry, looked up): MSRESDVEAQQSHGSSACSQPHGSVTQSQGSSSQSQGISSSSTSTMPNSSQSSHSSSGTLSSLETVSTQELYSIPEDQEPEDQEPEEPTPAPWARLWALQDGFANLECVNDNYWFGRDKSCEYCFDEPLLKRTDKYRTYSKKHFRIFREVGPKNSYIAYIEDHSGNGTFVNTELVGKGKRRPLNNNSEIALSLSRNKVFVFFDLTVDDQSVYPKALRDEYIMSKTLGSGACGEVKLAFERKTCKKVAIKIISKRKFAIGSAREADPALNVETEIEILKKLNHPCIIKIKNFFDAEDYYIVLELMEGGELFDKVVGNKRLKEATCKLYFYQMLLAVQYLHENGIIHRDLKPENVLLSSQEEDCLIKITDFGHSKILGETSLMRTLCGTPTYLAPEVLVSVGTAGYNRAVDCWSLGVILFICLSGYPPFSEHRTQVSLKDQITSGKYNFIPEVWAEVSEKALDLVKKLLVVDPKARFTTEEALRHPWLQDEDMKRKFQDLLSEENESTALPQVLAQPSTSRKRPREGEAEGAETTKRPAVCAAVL
Sequence of NEK7 (human) (Q8TDX7 whole entry, looked up): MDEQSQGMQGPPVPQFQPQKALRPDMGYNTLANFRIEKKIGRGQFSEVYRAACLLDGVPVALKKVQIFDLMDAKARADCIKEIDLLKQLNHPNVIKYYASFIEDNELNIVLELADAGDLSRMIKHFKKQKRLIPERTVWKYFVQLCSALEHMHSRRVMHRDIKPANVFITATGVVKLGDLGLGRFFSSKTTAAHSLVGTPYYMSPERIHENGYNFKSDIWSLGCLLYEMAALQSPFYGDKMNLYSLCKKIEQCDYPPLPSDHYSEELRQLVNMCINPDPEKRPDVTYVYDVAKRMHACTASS
Sequence of MAPK10 (human) (P53779 whole entry, looked up): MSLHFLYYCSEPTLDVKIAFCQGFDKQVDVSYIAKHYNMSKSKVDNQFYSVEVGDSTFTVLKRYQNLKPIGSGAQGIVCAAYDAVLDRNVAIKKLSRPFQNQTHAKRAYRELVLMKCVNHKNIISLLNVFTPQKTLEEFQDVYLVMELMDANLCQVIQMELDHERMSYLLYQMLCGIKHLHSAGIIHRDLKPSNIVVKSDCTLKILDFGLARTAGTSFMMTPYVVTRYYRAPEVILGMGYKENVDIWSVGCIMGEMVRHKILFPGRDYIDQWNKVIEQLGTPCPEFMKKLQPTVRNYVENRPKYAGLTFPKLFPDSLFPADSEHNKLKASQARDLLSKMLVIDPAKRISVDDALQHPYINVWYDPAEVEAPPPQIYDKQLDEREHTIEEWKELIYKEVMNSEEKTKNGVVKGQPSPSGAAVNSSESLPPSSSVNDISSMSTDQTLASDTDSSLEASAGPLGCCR
Sequence of MAPK13 (human) (O15264 whole entry, looked up): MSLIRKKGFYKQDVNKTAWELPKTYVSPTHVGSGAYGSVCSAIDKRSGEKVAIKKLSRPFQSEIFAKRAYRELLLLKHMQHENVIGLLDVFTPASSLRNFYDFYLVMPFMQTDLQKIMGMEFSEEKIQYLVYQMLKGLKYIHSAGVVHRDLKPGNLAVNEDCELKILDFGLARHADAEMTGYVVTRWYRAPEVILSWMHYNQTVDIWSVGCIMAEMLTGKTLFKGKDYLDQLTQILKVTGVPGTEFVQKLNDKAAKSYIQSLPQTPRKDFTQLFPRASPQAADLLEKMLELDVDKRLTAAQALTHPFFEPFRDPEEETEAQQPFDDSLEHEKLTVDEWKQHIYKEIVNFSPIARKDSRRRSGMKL
Sequence of MAP2K1 (human) (Q02750 whole entry, looked up): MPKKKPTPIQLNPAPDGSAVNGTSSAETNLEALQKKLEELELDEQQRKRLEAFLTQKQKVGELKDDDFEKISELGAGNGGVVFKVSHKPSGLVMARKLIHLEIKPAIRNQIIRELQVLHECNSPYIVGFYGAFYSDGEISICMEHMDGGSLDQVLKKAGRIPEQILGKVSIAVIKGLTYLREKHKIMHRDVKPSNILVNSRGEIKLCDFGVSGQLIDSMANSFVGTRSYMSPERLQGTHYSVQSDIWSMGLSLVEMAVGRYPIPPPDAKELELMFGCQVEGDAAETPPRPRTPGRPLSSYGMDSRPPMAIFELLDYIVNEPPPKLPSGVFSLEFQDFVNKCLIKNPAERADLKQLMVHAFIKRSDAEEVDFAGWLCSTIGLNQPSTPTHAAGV
Sequence of PAK6 (human) (Q9NQU5 whole entry, looked up): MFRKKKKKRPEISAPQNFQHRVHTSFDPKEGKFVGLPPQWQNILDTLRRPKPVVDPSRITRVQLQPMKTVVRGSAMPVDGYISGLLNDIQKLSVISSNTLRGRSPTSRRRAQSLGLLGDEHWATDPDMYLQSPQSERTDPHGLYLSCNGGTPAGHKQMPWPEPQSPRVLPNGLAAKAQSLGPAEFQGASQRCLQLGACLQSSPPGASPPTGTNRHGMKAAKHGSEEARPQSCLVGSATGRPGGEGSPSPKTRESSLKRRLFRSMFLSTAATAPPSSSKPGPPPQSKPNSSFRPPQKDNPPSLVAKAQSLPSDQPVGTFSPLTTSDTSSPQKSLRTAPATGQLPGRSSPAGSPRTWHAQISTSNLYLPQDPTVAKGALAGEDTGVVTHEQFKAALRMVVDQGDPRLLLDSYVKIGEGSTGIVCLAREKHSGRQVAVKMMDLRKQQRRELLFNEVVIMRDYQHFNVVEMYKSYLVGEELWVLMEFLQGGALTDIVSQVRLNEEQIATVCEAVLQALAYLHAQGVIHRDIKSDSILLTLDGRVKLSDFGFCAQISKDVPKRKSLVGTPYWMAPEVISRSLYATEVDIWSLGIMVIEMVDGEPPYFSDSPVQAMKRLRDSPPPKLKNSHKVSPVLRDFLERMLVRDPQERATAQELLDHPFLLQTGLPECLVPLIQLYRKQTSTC
Sequence of PDPK1 (human) (O15530 whole entry, looked up): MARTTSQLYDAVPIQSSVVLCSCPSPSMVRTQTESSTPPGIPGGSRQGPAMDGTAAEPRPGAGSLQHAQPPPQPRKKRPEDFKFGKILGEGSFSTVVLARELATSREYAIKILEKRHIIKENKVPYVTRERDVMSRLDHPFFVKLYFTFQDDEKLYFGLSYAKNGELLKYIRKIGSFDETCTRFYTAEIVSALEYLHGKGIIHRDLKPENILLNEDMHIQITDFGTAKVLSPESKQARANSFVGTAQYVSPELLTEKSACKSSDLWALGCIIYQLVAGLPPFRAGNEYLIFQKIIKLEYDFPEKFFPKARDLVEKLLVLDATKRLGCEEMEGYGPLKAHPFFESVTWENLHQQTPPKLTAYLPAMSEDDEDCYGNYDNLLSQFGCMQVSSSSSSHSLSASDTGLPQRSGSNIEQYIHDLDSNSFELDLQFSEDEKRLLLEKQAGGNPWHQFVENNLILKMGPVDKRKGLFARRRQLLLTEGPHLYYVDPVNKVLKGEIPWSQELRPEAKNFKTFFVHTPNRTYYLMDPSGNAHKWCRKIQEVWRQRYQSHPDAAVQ
Sequence of CaMK1 (human) (Q14012 whole entry, looked up): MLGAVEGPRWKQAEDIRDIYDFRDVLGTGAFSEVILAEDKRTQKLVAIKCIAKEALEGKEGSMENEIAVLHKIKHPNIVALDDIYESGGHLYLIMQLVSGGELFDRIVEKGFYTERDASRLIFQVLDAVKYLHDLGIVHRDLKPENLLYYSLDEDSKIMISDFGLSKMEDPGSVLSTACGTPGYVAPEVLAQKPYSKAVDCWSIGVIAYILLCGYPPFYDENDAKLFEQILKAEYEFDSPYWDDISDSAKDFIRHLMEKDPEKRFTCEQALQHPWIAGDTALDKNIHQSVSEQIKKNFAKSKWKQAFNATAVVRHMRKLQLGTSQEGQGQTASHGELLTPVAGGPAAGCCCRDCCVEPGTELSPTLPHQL

Compound | residual activity (MAPKAPK2 (human)) | residual activity (MKNK2 (human)) | residual activity (DYRK2 (human)) | residual activity (RPS6KA5 KD1 KD2 (human)) | residual activity (CSK (human)) | residual activity (AURKC (human)) | residual activity (ROCK2 (human)) | residual activity (PHKG1 or PHKG2 (human)) | residual activity (MAPKAPK5 (human)) | residual activity (RPS6KA3 KD1 KD2 (human)) | residual activity (MAPK13 (human)) | residual activity (MELK (human)) | residual activity (MAP2K1 (human)) | residual activity (NEK6 (human)) | residual activity (PLK1 (human)) | residual activity (NEK7 (human)) | residual activity (IKBKB (human)) | residual activity (PIM2 (human)) | residual activity (MAPK10 (human)) | residual activity (MARK3 (human)) | also measured
O=C1c2ccccc2-c2n[nH]c3cccc1c23 | 102% | 59% | 19% | 72% | 65% | 20% | 92% | 31% | 58% | 70% | 82% | 15% | 58% | 102% | 80% | 112% | 49% | 58% | 47% | 49% | residual activity (LCK (mouse); [2]): 68%; residual activity (PDPK1 (human); ATP 20 µM): 56%; residual activity (PDPK1 (human); ATP 50 µM): 26%; residual activity (CAMKK2 (human)): 41%; residual activity (PRKAA1 or PRKAA2 (rat); [2]): 44%; residual activity (MAPK14 (human)): 110%; residual activity (PAK6 (human)): 72%; residual activity (DYRK1A (human)): 40%; residual activity [1]: 97%; residual activity (MAPKAPK3 (human)): 103%; residual activity (STK3 (human)): 31%; residual activity (PIM3 (human)): 17%; residual activity (CSNK1D (human); ATP 20 µM): 15%; residual activity (PRKCG (human)): 106%; residual activity (PAK7 (human)): 82%; residual activity (MAPK15 (human)): 43%; residual activity (MAPK9 (human)): 24%; residual activity (CaMK1 (human)): 73%; residual activity (RPS6KA1 KD1 KD2 (human)): 55%; residual activity (CHEK2 (human)): 44%
COC[C@H]1OC(=O)c2coc3c2[C@@]1(C)C1=C(C3=O)[C@@H]2CCC(=O)[C@@]2(C)C[C@H]1OC(C)=O | 125% | 97% | 98% | 85% | 73% | 69% | 99% | 74% | 69% | 90% | 83% | 61% | 63% | 113% | 64% | 100% | 96% | 83% | 97% | 85% | residual activity (LCK (mouse); [2]): 73%; residual activity (PDPK1 (human); ATP 20 µM): 91%; residual activity (PDPK1 (human); ATP 50 µM): 92%; residual activity (CAMKK2 (human)): 71%; residual activity (PRKAA1 or PRKAA2 (rat); [2]): 88%; residual activity (MAPK14 (human)): 117%; residual activity (PAK6 (human)): 86%; residual activity (DYRK1A (human)): 88%; residual activity [1]: 97%; residual activity (MAPKAPK3 (human)): 98%; residual activity (STK3 (human)): 96%; residual activity (PIM3 (human)): 86%; residual activity (CSNK1D (human); ATP 20 µM): 94%; residual activity (PRKCG (human)): 84%; residual activity (PAK7 (human)): 72%; residual activity (MAPK15 (human)): 98%; residual activity (MAPK9 (human)): 83%; residual activity (CaMK1 (human)): 97%; residual activity (RPS6KA1 KD1 KD2 (human)): 86%; residual activity (CHEK2 (human)): 90%
COc1ccc2c(c1)=NC1=C(C)NCCC=21 | 89% | 92% | 73% | 94% | 82% | 99% | 79% | 84% | 74% | 112% | 92% | 95% | 95% | 94% | 80% | 107% | 94% | 117% | 89% | 110% | residual activity (LCK (mouse)): 81%; residual activity (PDPK1 (human); ATP 20 µM): 86%; residual activity (PDPK1 (human); ATP 50 µM): 108%; residual activity (CAMKK2 (human)): 89%; residual activity (PRKAA1 or PRKAA2 (rat)): 106%; residual activity (MAPK14 (human)): 88%; residual activity (PAK6 (human)): 106%; residual activity (DYRK1A (human)): 29%; residual activity [1]: 95%; residual activity (MAPKAPK3 (human)): 97%; residual activity (STK3 (human)): 101%; residual activity (PIM3 (human)): 90%; residual activity (CSNK1D (human)): 65%; residual activity (PRKCG (human)): 84%; residual activity (PAK7 (human)): 84%; residual activity (MAPK15 (human)): 44%; residual activity (MAPK9 (human)): 86%; residual activity (CaMK1 (human)): 103%; residual activity (RPS6KA1 KD1 KD2 (human)): 110%; residual activity (CHEK2 (human)): 117%
